What all share (format): cell-based, human
The test system of one test is HO-1. The experiment in a line: HO-1 mRNA by RT-qPCR. The settings on record: 48 h. How it is done:
(§1) LUHMES cells were seeded on PLO/FN coated 6-well microplates and the pharmacological treatments were performed as previously explained. The cells were washed in HBSS, prior to being collected for mRNA isolation (RNeasy® Plus Mini Kit, Qiagen, Venlo, Netherlands), following the manufacturer’s instructions. The mRNA concentrations were determined on a Nano-Drop 2000c (Thermo Fisher Scientific) and 1 µg of mRNA was reverse-transcribed into cDNA with the iScript™ Reverse Transcription Supermix for RT-qPCR Kit (Bio-Rad) on a thermal cycler (SensoQuest, Göttingen, Germany). Real-time PCR was performed using SYBR™ Select Master Mix for CFX (Thermo Fisher Scientific) with 30 ng cDNA and 0.4 µM of primers against the respective target genes (Supplementary Table S3), in a 20 µl total volume, on a CFX96 Touch™ Real-Time Cycler (Bio-Rad). The relative expression of mRNA was calculated using the CFX Manager software (ΔΔCt method) from Bio-Rad, and the Ct values of the target-genes were normalized to the reference genes RPL22 and UBQLN1. The data were reported as fold change relative to the control (DMSO-treated) condition.

The next test deals with Nrf2. The test can be described thus: Nrf2 nuclear translocation (cell fractionation, Western blot). The settings on record: 4 h treatment. How it is done:
For fractionation experiments, LUHMES were seeded on double-coated T25 flasks and submitted to pharmacological treatments. Afterwards, the medium was removed and cells were briefly washed with warm HBSS, and trypsinized for 5 min at 37 °C. The cells were pelleted at 500×g for 5 min at 4 °C, washed once with ice-cold PBS (phosphate buffered saline), and centrifuged at 500 g for 2 min at 4 °C. Nuclear protein extraction was achieved using the NE-PER™ nuclear and cytoplasmic extraction kit (Thermo Fisher Scientific), according to the manufacturer’s instructions. Briefly, the pellet was resuspended in 50 µl of CER I buffer, supplemented with Halt™ protease and phosphatase inhibitor cocktail (Thermo Fisher Scientific), and incubated on ice for 10 min, followed by the addition of 2.75 µl of CER II, and a 2 min incubation on ice after vortexing. The samples were then centrifuged at maximum speed for 10 min at 4 °C and the cytoplasmic fraction was saved. The nuclear pellet was washed with ice-cold PBS and resuspended in 25 µl of NER buffer supplemented with protease and phosphatase inhibitors, followed by 6 cycles of 10 min incubation on ice, with 15 s of vortexing between each cycle. Finally, the samples were centrifuged at maximum speed for 10 min at 4 °C and the nuclear fraction was transferred to a new tube. All protein extracts were stored long-term at − 80 °C.
The concentrations of protein extracts were determined by BCA (bicinchoninic acid) assay, using the Pierce™ BCA protein assay kit (Thermo Fisher Scientific), according to the manufacturer’s instructions. Absorbance values were measured on a FLUOstar® Omega plate reader. For Western blot analysis, sample volumes were diluted in PBS to ensure that equal amounts of total protein were loaded. For fractionated samples, 30 µg of cytoplasmic fraction and 15 µg of nuclear fraction were applied. Samples were denatured by heating at 95 °C for 5 min on a ThermoMixer C (Eppendorf, Wesseling-Berzdorf, Germany) with 4 × Laemmli sample buffer supplemented with 10% β-ME (β-mercaptoethanol). SDS–PAGE was performed using 7.5% Criterion™ TGX™ precast midi gels in a Tris–glycine-SDS running buffer (Bio-Rad). The proteins were blotted onto PVDF membranes, using a trans-blot turbo transfer system (Bio-Rad) at 25 V for 30 min. The membranes were blocked for 1 h at RT, with 3 × Roti®-Block solution (Carl Roth, Karlsruhe, Germany) or 5% nonfat-dry milk in 0.05% TBST (Tris-buffered saline with 0.05% Tween20), in the case of the Nrf2 antibody. Membranes were incubated at 4 °C overnight under gentle shaking with the appropriate primary antibody solutions as listed in Supplementary Table S2. On the following day, the membranes were washed with TBST, and incubated with the HRP-secondary antibodies for 2 h at RT (Supplementary Table S2). After further washing, the membranes were exposed to Clarity Western ECL Substrate (Bio-Rad), or SuperSignal West Femto Maximum Sensitivity Substrate (Thermo Fisher Scientific) in the case of the Nrf2 antibody. Chemiluminescence signal was detected with an Odyssey® Fc imaging system (LI-COR Biosciences, Bad Homburg, Germany) and analyzed by Image Studio™ software (LI-COR Biosciences). Fraction purity was confirmed and signal intensity normalized to housekeeping proteins, using β-III tubulin for the cytoplasmic fraction and lamin A for the nuclear fraction. Protein expression was expressed as fold change relative to the control (DMSO-treated) condition.
Background: In western blotting, separated proteins are transferred to a membrane and probed.

In a further test the test system is NQO1. The test can be described thus: NQO1 mRNA by RT-qPCR. The settings on record: 48 h. How it is done:
as §1
A general note: Real-time PCR tracks product formation cycle by cycle.

For test [1], the system named is Nrf2-knockdown LUHMES cells. The experiment in a line: Cell viability in Nrf2-knockdown cells exposed to annonacin (calcein). The settings on record: Nrf2 siRNA, compound + 20 nM annonacin, 48 h. How it is done:
The calcein AM green dye (Thermo Fisher Scientific) was diluted in DMSO to obtain a 1 mM stock solution. The stock solution was further diluted in HBSS (Hanks' balanced salt solution), immediately before incubation, to achieve a final working concentration of 1 μM in the well. The medium was removed, the cells were washed once with warm HBSS, and 200 µl of calcein working solution was added to each well. For background correction, 200 µl of calcein working solution was added to a well without cells (background control). After 30 min of incubation at 37 °C, the calcein solution was removed and the cells were washed once with HBSS. Cells were lysed in a 200 µl volume of 1% Triton™ X-100 in PBS (phosphate buffered saline) and the lysate transferred to a 96‐well black plate for the readout. The fluorescence signal was measured on a FLUOstar® Omega plate reader (BMG LabTech, Ortenberg, Germany) at λ Ex/Em = 485/530 nm and data was analyzed with the MARS data analysis software (BMG LabTech). For background correction, we subtracted the background control signal from the measured values of all experimental conditions. Data were expressed as percentage of viability relative to the control (DMSO-treated) condition.
LUHMES cells seeded on PLO/FN coated 48-well microplates were left to differentiate for 5 days, before being transfected with 25 nM of NRF2-targeting (gene ID 4780) or negative control siRNA (siTOOLs Biotech, Planegg, Germany), in Opti-MEM + GlutaMax medium (Thermo Fisher Scientific) with 0.4% of lipofectamine RNAiMax. After 24 h, the medium was removed and replaced with glucose-reduced medium for the pharmacological treatments, similar as described in the previous sections. Cell viability was determined by calcein assay, after 48 h of treatment, as explained before.

Setting [2] is: presence of 20 nM annonacin, vs DMSO control under annonacin.
Where [3] appears, read: absence of annonacin, vs control.
[4] abbreviates: 20 nM annonacin alone (DMSO control condition) vs DMSO control without annonacin.

Each structure is given as a SMILES string.

For the molecule `Cn1c(Nc2nc3ccc(C(F)(F)F)cc3s2)nc2cc(C(=O)NCCOCCO)ccc21` [HPP-D], the “HO-1 mRNA expression” value with HO-1 (absence of annonacin) is recorded as 19 fold over DMSO control; in the test with HO-1 (setting [2]) it was “significantly rescued from this downregulation”. Also, the “Nrf2 expression in the nuclear fraction, normalized to lamin A” value with Nrf2 (setting [3]) is recorded as “significantly increased expression of Nrf2 protein in the nuclear fraction”; with Nrf2 (presence of 20 nM annonacin) it was “higher expression of Nrf2 in the nuclear fraction”. Besides, in the test with NQO1 (absence of annonacin), the “NQO1 mRNA expression” value was “fivefold”. In test [1], the “protective effects against annonacin toxicity in Nrf2-knockdown cells” value (“protective effects” below) is “slightly attenuated in Nrf2-knockdown cells”.
In the case of `CCCCCCCCCCCC[C@@H](O)[C@H]1CC[C@H]([C@H](O)CCCC[C@H](O)CCCCC[C@@H](O)CC2=CC(C)OC2=O)O1` (some centres unmarked) [annonacin], the “HO-1 mRNA expression” value in the test with HO-1 (setting [4]) is “downregulation of both target-genes”. Also, in the test with NQO1 (setting [4]), the “NQO1 mRNA expression” value is reported as “downregulation of both target-genes”.
Regarding `O=C1[C@H](CC[C@H](O)c2ccc(F)cc2)[C@@H](c2ccc(O)cc2)N1c1ccc(F)cc1` [ezetimibe], the “HO-1 mRNA expression” value in the test with HO-1 (absence of annonacin) and in the test with HO-1 (setting [2]) was “did not induce significant changes” in each case. Moreover, the “Nrf2 expression in the nuclear fraction, normalized to lamin A” value in the test on Nrf2 (setting [3]) and in the test with Nrf2 (presence of 20 nM annonacin) was “no evidence of increasing the Nrf2 nuclear expression” each time. The “NQO1 mRNA expression” value with NQO1 (absence of annonacin) and in the test on NQO1 (setting [2]) was “did not induce significant changes” in each case. Moreover, the “protective effects” value in test [1] is recorded as “did not observe an abolishment of the neuroprotective effects”.
On to `C=CC(C)(C)c1cc(/C=C/C(=O)c2ccc(O)cc2)c(OC)cc1O` [licochalcone A], for which the “HO-1 mRNA expression” value in the test on HO-1 (setting [2]) is reported as “significantly rescued from this downregulation”. For the same molecule, the figures for the “Nrf2 expression in the nuclear fraction, normalized to lamin A” value in the test on Nrf2 (setting [3]) and in the test on Nrf2 (presence of 20 nM annonacin) were “significantly increased expression of Nrf2 protein in the nuclear fraction” and “higher expression of Nrf2 in the nuclear fraction”, respectively. In addition, the “NQO1 mRNA expression” value in the test with NQO1 (absence of annonacin) was found to be 2.5 fold over DMSO control. Also, the “protective effects” value in test [1] is reported as “slightly attenuated in Nrf2-knockdown cells”.

The record behind these values is paper PMC11362529, “Exploring the neuroprotective potential of Nrf2-pathway activators against annonacin toxicity” (Scientific Reports, 2024).
